Consider 50 compounds from patent US8916565B2, “Pyrrolopyrazine-spirocyclic piperidine amides as modulators of ion channels” (priority 2011, dated 2014).

Sequence of human NaV subtype, like NaV 1.7 (Q15858 whole entry): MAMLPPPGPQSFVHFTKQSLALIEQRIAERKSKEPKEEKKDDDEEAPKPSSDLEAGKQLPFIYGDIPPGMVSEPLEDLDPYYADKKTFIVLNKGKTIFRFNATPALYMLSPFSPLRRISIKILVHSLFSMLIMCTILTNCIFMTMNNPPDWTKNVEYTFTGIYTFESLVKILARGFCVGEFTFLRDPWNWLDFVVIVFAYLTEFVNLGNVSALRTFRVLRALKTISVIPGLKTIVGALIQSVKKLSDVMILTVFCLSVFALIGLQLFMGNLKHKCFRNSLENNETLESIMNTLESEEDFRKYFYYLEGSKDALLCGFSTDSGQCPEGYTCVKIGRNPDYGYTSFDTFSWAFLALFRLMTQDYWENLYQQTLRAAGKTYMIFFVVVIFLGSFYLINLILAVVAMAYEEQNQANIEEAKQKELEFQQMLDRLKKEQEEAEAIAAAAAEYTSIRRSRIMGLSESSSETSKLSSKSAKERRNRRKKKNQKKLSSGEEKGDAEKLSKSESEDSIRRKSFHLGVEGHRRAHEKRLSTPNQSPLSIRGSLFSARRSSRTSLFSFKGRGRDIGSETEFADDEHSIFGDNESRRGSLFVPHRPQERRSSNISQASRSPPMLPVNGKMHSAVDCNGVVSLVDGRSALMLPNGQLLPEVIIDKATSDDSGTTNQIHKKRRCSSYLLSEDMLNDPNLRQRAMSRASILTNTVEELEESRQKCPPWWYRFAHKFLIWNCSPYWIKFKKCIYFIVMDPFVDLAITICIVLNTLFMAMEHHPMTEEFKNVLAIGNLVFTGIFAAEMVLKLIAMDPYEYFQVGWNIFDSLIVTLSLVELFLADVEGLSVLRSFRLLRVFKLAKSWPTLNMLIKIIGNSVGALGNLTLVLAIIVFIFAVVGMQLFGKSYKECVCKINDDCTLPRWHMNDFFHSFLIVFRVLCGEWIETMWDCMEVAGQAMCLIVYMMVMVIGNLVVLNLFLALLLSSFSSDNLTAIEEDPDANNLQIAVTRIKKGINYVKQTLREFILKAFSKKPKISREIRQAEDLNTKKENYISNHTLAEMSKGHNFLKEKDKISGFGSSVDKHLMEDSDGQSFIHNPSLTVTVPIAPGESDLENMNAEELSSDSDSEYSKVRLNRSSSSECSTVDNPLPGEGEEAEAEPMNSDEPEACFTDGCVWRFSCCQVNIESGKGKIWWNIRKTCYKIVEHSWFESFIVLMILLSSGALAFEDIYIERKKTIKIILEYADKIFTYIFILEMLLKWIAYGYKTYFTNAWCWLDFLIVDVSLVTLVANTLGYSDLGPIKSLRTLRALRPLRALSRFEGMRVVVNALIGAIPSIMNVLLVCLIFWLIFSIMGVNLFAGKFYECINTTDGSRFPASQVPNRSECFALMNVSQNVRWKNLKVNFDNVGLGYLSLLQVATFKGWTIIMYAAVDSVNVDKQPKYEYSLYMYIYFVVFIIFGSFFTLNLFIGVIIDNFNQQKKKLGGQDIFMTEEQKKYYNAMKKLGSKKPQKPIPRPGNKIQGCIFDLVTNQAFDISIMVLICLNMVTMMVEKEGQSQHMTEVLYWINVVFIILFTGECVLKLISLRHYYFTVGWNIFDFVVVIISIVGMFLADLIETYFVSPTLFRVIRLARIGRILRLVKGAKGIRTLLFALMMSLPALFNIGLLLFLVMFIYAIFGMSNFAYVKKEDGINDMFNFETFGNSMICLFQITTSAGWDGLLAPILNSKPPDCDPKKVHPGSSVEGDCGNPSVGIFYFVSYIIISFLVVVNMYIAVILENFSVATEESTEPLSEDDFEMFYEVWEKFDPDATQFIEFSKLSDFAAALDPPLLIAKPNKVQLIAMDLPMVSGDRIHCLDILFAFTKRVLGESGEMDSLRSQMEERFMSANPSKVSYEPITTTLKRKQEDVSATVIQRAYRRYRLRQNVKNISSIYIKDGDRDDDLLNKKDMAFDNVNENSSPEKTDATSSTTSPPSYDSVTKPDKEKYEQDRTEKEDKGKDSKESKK

The test addresses human NaV subtype, like NaV 1.7 (Homo sapiens, UniProt Q15858). Description: E-VIPR optical membrane potential assay with electrical stimulation. The format is cell-based. The settings on record: active against one or more sodium channels; Table 3 does not name the assay or NaV subtype; read-out: Binned Activity Data (IC50). The source says: Assays for Detecting and Measuring NaV Inhibition Properties of Compound E-VIPR Optical Membrane Potential Assay Method with Electrical Stimulation
Sodium channels are voltage-dependent proteins that can be activated by inducing membrane voltage changes by applying electric fields. The electrical stimulation instrument and methods of use are described in Ion Channel Assay Methods PCT/US01/21652, herein incorporated by reference and are referred to as E-VIPR. The instrument comprises a microtiter plate handler, an optical system for exciting the coumarin dye while simultaneously recording the coumarin and oxonol emissions, a waveform generator, a current- or voltage-controlled amplifier, and a device for inserting electrodes in well. Under integrated computer control, this instrument passes user-programmed electrical stimulus protocols to cells within the wells of the microtiter plate.
24 hours before the assay on E-VIPR, HEK cells expressing human NaV subtype, like NaV 1.7, are seeded in 384-well poly-lysine coated plates at 15,000-20,000 cells per well. Other subtypes are performed in an analogous mode in a cell line expressing the NaV of interest. HEK cells are grown in media (exact composition is specific to each cell type and NaV subtype) supplemented with 10% FBS (Fetal Bovine Serum, qualified; GibcoBRL #16140-071) and 1% Pen-Strep (Penicillin-Streptomycin; GibcoBRL #15140-122). Cells are grown in vented cap flasks, in 90% humidity and 10% CO2, to 100% confluence. They are usually split by trypsinization 1:10 or 1:20, depending on scheduling needs, and grown for 2-3 days before the next split.
Bath 1 buffer. Glucose 10 mM (1.8 g/L), Magnesium Chloride (Anhydrous), 1 mM (0.095 g/L), Calcium Chloride, 2 mM (0.222 g/L), HEPES 10 mM (2.38 g/L), Potassium Chloride, 4.5 mM (0.335 g/L), Sodium Chloride 160 mM (9.35 g/L).
Hexyl Dye Solution: Bath 1 Buffer+0.5% β-cyclodextrin (make this prior to use, Sigma #C4767), 8 μM CC2-DMPE+2.5 μM DiSBAC6(3). To make the solution Add volume of 10% Pluronic F127 stock equal to volumes of CC2-DMPE+DiSBAC6(3). The order of preparation is first mix Pluronic and CC2-DMPE, then add DiSBAC6(3) while vortexing, then add Bath 1+β-Cyclodextrin.
1) Pre-spot compounds (in neat DMSO) into compound plates. Vehicle control (neat DMSO), the positive control (20 mM DMSO stock tetracaine, 125 μM final in assay) and test compounds are added to each well at 160× desired final concentration in neat DMSO. Final compound plate volume will be 80 μL (80-fold intermediate dilution from 1 μL DMSO spot; 160-fold final dilution after transfer to cell plate). Final DMSO concentration for all wells in assay is 0.625%.
2) Prepare Hexyl Dye Solution.
3) Prepare cell plates. On the day of the assay, medium is aspirated and cells are washed three times with 100 μL of Bath 1 Solution, maintaining 25 μL residual volume in each well.
4) Dispense 25 μL per well of Hexyl Dye Solution into cell plates. Incubate for 20-35 minutes at room temp or ambient conditions.
5) Dispense 80 μL per well of Bath 1 into compound plates. Acid Yellow-17 (1 mM) is added and Potassium Chloride can be altered from 4.5 to 20 mM depending on the NaV subtype and assay sensitivity.
6) Wash cell plates three times with 100 μL per well of Bath1, leaving 25 μL of residual volume. Then transfer 25 uL per well from Compound Plates to Cell Plates. Incubate for 20-35 minutes at room temp/ambient condition
7) Read Plate on E-VIPR. Use the current-controlled amplifier to deliver stimulation wave pulses for typically 9 seconds and a scan rate of 400 Hz. A pre-stimulus recording is performed for 0.5 seconds to obtain the un-stimulated intensities baseline. The stimulatory waveform is applied for 9 seconds followed by 0.5 seconds of post-stimulation recording to examine the relaxation to the resting state.
As for `CC(C)Oc1ccc(C(=O)N2CCC3(CC2)c2ccc(C(=O)C4(C)CC4)n2CCN3C)cc1CO` [Compound 656], the half-maximal inhibitory concentration (IC50) is at most 2000 nM.

Take `CC(=O)c1ccc2n1CCN(C)C21CCN(C(=O)c2ccc(C(C)(C)O)c(C)c2)CC1` [Compound 456]: the 50% inhibitory concentration (IC50) is 2000 to 5000 nM.

Regarding `Cc1cc(C(=O)N2CCC3(CC2)c2ccc(C(F)(F)F)n2CCN3C)ccc1S(=O)(=O)NC(C)C` [Compound 450], the IC50 was at most 2000 nM.

Regarding `CC(=O)c1ccc2n1CCN(C)C21CCN(C(=O)c2ccc(COc3ccccc3)cc2)CC1` [Compound 665], the IC50 is at most 2000 nM.

For `O=C(c1ccc(S(=O)(=O)NC2CC2)cc1)N1CCC2(CC1)NCCn1c(C(F)(F)F)ccc12` [Compound 569], the half-inhibitory concentration (IC50) was at most 2000 nM.

Turning to `CCCOc1ccc(C(=O)N2CCC3(CC2)c2ccc(Cl)n2CCN3C)cc1OC` [Compound 698], the IC50 lay within 2000 to 5000 nM.

With `CC(C)c1ccc(C(=O)N2CCC3(CC2)c2ccc(Cl)n2CCN3C)cc1` [Compound 221], the IC50 was over 5000 nM.

As to `CC(C)c1ccc(C(=O)N2CCC3(CC2)c2ccc(C(=O)C(F)(F)F)n2CCN3C)cc1S(C)(=O)=O` [Compound 154], the IC50 is 2000 to 5000 nM.

Turning to `CC(C)Oc1ccc(C(=O)N2CCC3(CC2)c2c(C#N)cc(C(F)(F)F)n2CCN3C)cc1Cl` [Compound 548], the concentration for half-maximal inhibition (IC50) was at most 2000 nM.

In the case of `CC[C@@H](C)Oc1ccc(C(=O)N2CCC3(CC2)NCCn2c(C(F)(F)F)ccc23)cc1OC` [Compound 745], the IC50 was at most 2000 nM.

`C[C@H]1Cn2c(C(=O)C(F)(F)F)ccc2C2(CCN(C(=O)c3ccc(S(=O)(=O)C4CC4)cc3)CC2)N1C` [Compound 702]: the IC50 is at most 2000 nM.

`COc1ccc(C(=O)N2CCC3(CC2)c2ccc(C(F)(F)F)n2CCN3C)cc1OC` [Compound 321]: the IC50 was over 5000 nM.

In the case of `COc1cc(C(=O)N2CCC3(CC2)c2ccc(C(C)=O)n2CCN3C)ccc1COCCC(F)(F)F` [Compound 373], the IC50 is at most 2000 nM.

`COCCOc1ccc(C(=O)N2CCC3(CC2)c2c(F)cc(C(F)(F)F)n2CCN3C)cc1` [Compound 736]: the IC50 is at most 2000 nM.

In the case of `Cc1cc(C(=O)N2CCC3(CC2)c2ccc(C(F)(F)F)n2CCN3C)ccc1F` [Compound 177], the IC50 is over 5000 nM.

As to `CC(=O)c1ccc2n1CCN(C)C21CCN(C(=O)c2ccc(-c3ccccc3)c(C)c2)CC1` [Compound 304], the IC50 was at most 2000 nM.

For `CC(=O)c1cc2n(c1)CC(C)(C)NC21CCN(C(=O)c2ccc(C3CCCCC3)cc2)CC1` [Compound 344], the half-inhibitory concentration (IC50) is 2000 to 5000 nM.

Consider `Cc1ccc(C(=O)N2CCC3(CC2)c2ccc(C(F)(F)F)n2CCN3C)cc1` [Compound 319], for which the IC50 is over 5000 nM.

For the compound `COc1ccc(C(=O)N2CCC3(CC2)c2ccc(C(=O)C4(C)CC4)n2CCN3C)nc1C` [Compound 448], the IC50 was at most 2000 nM.

With `CCNS(=O)(=O)c1ccc(C(=O)N2CCC3(CC2)c2ccc(C(C)=O)n2CCN3C)cc1` [Compound 192], the IC50 was over 5000 nM.

For the compound `COc1ccc(C(=O)N2CCC3(CC2)c2ccc(C(=O)C(F)(F)F)n2C[C@H](C)N3C)cc1C(F)(F)F` [Compound 726], the IC50 is at most 2000 nM.

As for `COc1cc(C(=O)N2CCC3(CC2)c2ccc(Cl)n2CCN3C)ccc1OC(C)C` [Compound 234], the half-inhibitory concentration (IC50) is over 5000 nM.

Regarding `CN1CCn2c(Cl)ccc2C12CCN(C(=O)c1ccc(Oc3ccccc3)cc1)CC2` [Compound 406], the half-maximal inhibitory concentration (IC50) was 2000 to 5000 nM.

`CN1CCn2c(C(=O)C(C)(C)C)ccc2C12CCN(C(=O)c1ccc(O)c(C(F)(F)F)c1)CC2` [Compound 97]: the IC50 was at most 2000 nM.

Regarding `CCCCc1ccc(C(=O)N2CCC3(CC2)c2ccc(Cl)n2CCN3C)cc1` [Compound 275], the concentration for half-maximal inhibition (IC50) lay within 2000 to 5000 nM.

For `CCC(c1ccc(F)cc1)n1cc(C(=O)N2CCC3(CC2)c2ccc(C(F)(F)F)n2CCN3C)nn1` (centres unmarked) [Compound 293], the IC50 was over 5000 nM.

Take `CN1CCn2c(Cl)ccc2C12CCN(C(=O)c1ccc(S(=O)(=O)C(F)F)cc1)CC2` [Compound 670]: the IC50 was over 5000 nM.

Consider `CC(C)Oc1ccc(C(=O)N2CCC3(CC2)NCC(C)n2c(C(=O)C(F)(F)F)ccc23)cc1Cl` (centres unmarked) [Compound 324], for which the IC50 was at most 2000 nM.

`CN1CCn2c(Cl)ccc2C12CCN(C(=O)c1ccc(Cc3ccccc3)cc1)CC2` [Compound 334]: the half-maximal inhibitory concentration (IC50) is over 5000 nM.

In the case of `COc1cc(C(=O)N2CCC3(CC2)c2ccc(C(=O)C(F)(F)F)n2CCN3C)ccc1OCC(C)C` [Compound 516], the concentration for half-maximal inhibition (IC50) was at most 2000 nM.

With `Cc1cc(C(=O)N2CCC3(CC2)c2ccc(C(F)(F)F)n2CCN3C(=O)N(C)C)ccc1C(C)(C)O` [Compound 634], the IC50 is over 5000 nM.

Turning to `Cc1cc(C(=O)N2CC[C@]3(c4ccc(C(F)(F)F)n4CCN3C)[C@H](F)C2)ccc1C(C)(C)O` [Compound 350], the IC50 was at most 2000 nM.

With `Cc1nc(C(=O)N2CCC3(CC2)c2c(F)cc(C(F)(F)F)n2CCN3C)ccc1OC(C)C` [Compound 206], the IC50 was at most 2000 nM.

As for `COc1ccc(C(=O)N2CCC3(CC2)c2ccc(C(F)(F)F)n2CCN3C)cc1` [Compound 351], the half-maximal inhibitory concentration (IC50) is over 5000 nM.

With `CN1CCn2c(C(=O)C(C)(C)C)ccc2C12CCN(C(=O)c1ccc(S(=O)(=O)C(C)(C)C)cc1)CC2` [Compound 680], the IC50 is at most 2000 nM.

With `COc1ncccc1-c1ccc(C(=O)N2CCC3(CC2)c2ccc(C(=O)C(F)(F)F)n2CCN3C)cc1C` [Compound 514], the IC50 was over 5000 nM.

As to `Cc1cc(C(=O)N2CC[C@]3(c4ccc(C(F)(F)F)n4CCN3C)[C@H](F)C2)ccc1OC(C)C` [Compound 475], the IC50 is at most 2000 nM.

Turning to `CN1CCn2c(C(=O)C3CC3)ccc2C12CCN(C(=O)c1ccc(C(C)(C)O)c(F)c1)CC2` [Compound 368], the concentration for half-maximal inhibition (IC50) was at most 2000 nM.

As to `Cc1cc(C(=O)N2CCC3(CC2)NCC(C)n2c(C(=O)C(F)(F)F)ccc23)ccc1OC(C)C` (centres unmarked) [Compound 524], the half-inhibitory concentration (IC50) was at most 2000 nM.

Consider `CC1(C)Cn2c(C(=O)C(F)(F)F)ccc2C2(CCN(C(=O)c3ccc(S(=O)(=O)NC4CC4)cc3)CC2)N1` [Compound 442], for which the IC50 is at most 2000 nM.

As to `COc1cc(C(=O)N2CCC3(CC2)NC(C)(C)Cn2c(C(=O)C(F)(F)F)ccc23)ccc1COCCC(F)(F)F` [Compound 480], the half-inhibitory concentration (IC50) was at most 2000 nM.

Regarding `Cc1cc(C(=O)N2CCC3(CC2)c2ccc(C(F)(F)F)n2CCN3C)ccc1OCCCO` [Compound 583], the half-inhibitory concentration (IC50) is at most 2000 nM.

As for `Cc1cc(C(=O)N2CCC3(CC2)c2ccc(C(=O)C(F)(F)F)n2CCN3C)ccc1OCC(C)(C)O` [Compound 570], the IC50 is at most 2000 nM.

With `CCc1ccc(C(=O)N2CCC3(CC2)c2ccc(C(C)=O)n2CCN3C)cc1` [Compound 278], the IC50 was over 5000 nM.

Turning to `Cc1cc(C(=O)N2CCC3(CC2)c2ccc(C(F)(F)F)n2CCN3C2CC2)ccc1C(C)(C)O` [Compound 307], the IC50 is at most 2000 nM.

In the case of `CC(C)CS(=O)(=O)c1ccc(C(=O)N2CCC3(CC2)c2ccc(C(F)(F)F)n2CCN3C)cc1` [Compound 486], the IC50 was at most 2000 nM.

As to `Cc1cc(C(=O)N2CCC3(CC2)NCC(C)(C)n2c(C(F)(F)F)ccc23)ccc1C(C)(C)O` [Compound 128], the concentration for half-maximal inhibition (IC50) is at most 2000 nM.

In the case of `CC(=O)c1cc2n(c1)CC(C)(C)NC21CCN(C(=O)c2ccc(OC(C)C)c(C(F)(F)F)c2)CC1` [Compound 139], the half-inhibitory concentration (IC50) was over 5000 nM.

In the case of `COc1ccc(C(=O)N2CCC3(CC2)NCC(C)n2c(C(=O)C(F)(F)F)ccc23)cc1C(F)(F)F` (centres unmarked) [Compound 173], the IC50 was at most 2000 nM.

For `CNC(=O)N1CCn2c(C(F)(F)F)ccc2C12CCN(C(=O)c1ccc(OC(C)C)c(Cl)c1)CC2` [Compound 419], the concentration for half-maximal inhibition (IC50) was at most 2000 nM.

One may read the IC50 as the concentration needed to halve the response being measured.
